As usually defined, the LC50 is the concentration lethal to half of the exposed cells or organisms. A higher LC50 goes with lower toxicity.

In ChEMBL document CHEMBL3045342, “Quantitative relationship between insecticidal activity and Ca2+ pump stimulation by flubendiamide and its related compounds” (J Pestic Sci, 2009) one finds Activity and LC50 data, which are given here for twelve molecules.

For assay [1], the target named is Ryanodien receptor (Spodoptera exigua) (UniProt H9CNL0). The assay is described as follows: Activation of ryanodine receptor in sixth-instar larvae of Spodoptera litura muscle membrane assessed as induction of Ca2+ pump at 1 uM after 30 min relative to control.
Assay [2] has the same target. The assay is described as follows: Activation of ryanodine receptor in sixth-instar larvae of Spodoptera litura muscle membrane assessed as induction of Ca2+ pump at 0.1 uM after 30 min relative to control.
The target is the same in assay [3]. Briefly: Activation of ryanodine receptor in sixth-instar larvae of Spodoptera litura muscle membrane assessed as induction of Ca2+ pump at 10 uM after 30 min relative to control.
In another assay the test system is Spodoptera litura. Briefly: Insecticidal activity against Spodoptera litura cabbage leaf disk after 4 to 7 days by leaf dipping method. It is filed as functional. Conditions: foliar.
The target of assay [4] is Ryanodien receptor (Spodoptera exigua) (UniProt H9CNL0). Briefly: Activation of ryanodine receptor in sixth-instar larvae of Spodoptera litura muscle membrane assessed as induction of Ca2+ pump at 1 to 100 uM after 30 min.
Assay [5] shares this target. Briefly: Activation of ryanodine receptor in sixth-instar larvae of Spodoptera litura muscle membrane assessed as induction of Ca2+ pump at 0.1 uM after 30 min in presence of ryanodine.
Assay [6] shares this target. The assay is described as follows: Activation of ryanodine receptor in sixth-instar larvae of Spodoptera litura muscle membrane assessed as induction of Ca2+ pump at 0.4 uM after 30 min relative to control.
The target is the same in assay [7]. The assay is described as follows: Activation of ryanodine receptor in sixth-instar larvae of Spodoptera litura muscle membrane assessed as induction of Ca2+ pump at 2 uM after 30 min relative to control.

In brackets after ≈: the same amount, converted by molar mass. Activity calls are given as the source filed them. The calls are words filed in the database; no cut-off is given here.

Regarding `C/C=C(/C)C(=O)O[C@H]1C(C)=C2[C@H]([C@@H]1OC(=O)CCCCCCC)[C@@](C)(OC(C)=O)C[C@H](OC(=O)CCC)[C@@]1(O)[C@H]2OC(=O)[C@@]1(C)O`, the Activity in assay [1] is 31.7%; in assay [2] it was 67.8%; in assay [3], 31%.

In the assay on Spodoptera litura, `Cc1cc(C(F)(F)C(F)(F)F)ccc1NC(=O)c1cccc(I)c1C(=O)NC(C)C` came in with an LC50 of 0.3 µg/mL (≈ 0.555 µM). On the same count and under the same terms, the same measure for `Cc1cc(Cl)ccc1NC(=O)c1cccc(Br)c1C(=O)NC(C)C`: 10 µg/mL (≈ 24.4 µM); for `Cc1cc(C(F)(C(F)(F)F)C(F)(F)F)ccc1NC(=O)c1cccc(I)c1C(=O)NC(C)C`: 0.1 µg/mL (≈ 0.169 µM). Consider `CC(C)[C@@]1(O)[C@@H](OC(=O)c2cc[nH]c2)[C@@]2(O)[C@]3(C)C[C@@]4(O)O[C@@]5([C@H](O)[C@@H](C)CC[C@]35O)[C@@]2(O)[C@@]41C`, for which the outcome in assay [4] was Active. As for `Cc1cc(C(F)(C(F)(F)F)C(F)(F)F)ccc1NC(=O)c1cccc(I)c1C(=O)NC(C)(C)CS(C)(=O)=O` [FLUBENDIAMIDE], the result in assay [5] was inactive. Besides, the LC50 with Spodoptera litura was 0.03 µg/mL (≈ 0.044 µM). In the assay on Spodoptera litura, `Cc1cc(OC(F)(F)F)ccc1NC(=O)c1cccc(I)c1C(=O)NC(C)C` gave an LC50 of 1 µg/mL (≈ 1.98 µM).

In the assay on Spodoptera litura, `CSCC(C)(C)NC(=O)c1c(I)cccc1C(=O)Nc1ccc(C(F)(C(F)(F)F)C(F)(F)F)cc1C` gave an LC50 of 0.03 µg/mL (≈ 0.0461 µM).

As to `Cc1cc(OC(F)F)ccc1NC(=O)c1cccc(I)c1C(=O)NC(C)C`, in the assay on Spodoptera litura, the LC50 amounted to 1 µg/mL (≈ 2.05 µM). For the molecule `CNc1ccc2oc(C[C@H]3O[C@@]4(CC[C@H]3C)O[C@H]([C@H](C)C(=O)c3ccc[nH]3)[C@H](C)C[C@H]4C)nc2c1C(=O)O`, the Activity in assay [6] is 158%; in assay [7] it was 358%.

`CSCC(C)(C)NC(=O)c1c(C(=O)Nc2ccc(C(F)(C(F)(F)F)C(F)(F)F)cc2C)cc(Cl)c(Cl)c1I`: the LC50 with Spodoptera litura is more than 10 µg/mL. Same read-out and setting: then `Cc1cc(Cl)ccc1NC(=O)c1ccccc1C(=O)NC(C)C`, with 10 µg/mL (≈ 30.2 µM).
